Test results published in patent US20240294543A1, “CYCLOHEPTA-THIENO-DIAZEPINE DERIVATIVES AS GABA A GAMMA1 PAM” (Hoffmann-La Roche Inc., priority 2021, published 2024).
Like-named read-outs stand apart in the source and are kept apart here.

Columns and labels:
h-GABA-A α2β2γ1 = h-GABA-A α2β2γ1 (Homo sapiens (Human), UniProt P47869+Q8N1C3); assay: Two-electrode voltage clamp electrophysiology in Xenopus oocytes expressing GABAA receptors; type: cell-based; details: for Efficacy (GABA) %: % modulation of GABA EC20 = 100*(Fold increase−1), compound at about 30-fold its Ki α2β2γ1; for Fold increase h-GABA-A α2β2γ1 oocyte @ 30-fold Ki: Xenopus oocytes, GABA EC20, compound at about 30-fold its Ki α2β2γ1
Summary of the method: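 Xenopus oocytes injected with receptor subunit RNA and recorded 3–5 days later by two-electrode voltage clamp at −80 mV, room temperature, pH 7.4. GABA applied at EC20 for 1.5 min, with and without test compound. Efficacy = extremum of the point-by-point ratio of the two responses, expressed as % modulation of GABA EC20; ≥3 oocytes per concentration.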

[1] = target: human GABAA α1β2γ1 receptor (Homo sapiens (Human), UniProt P14867+Q8N1C3); assay: Radioligand binding assay, competition for [3H]RO7239181, γ1-containing GABAA subtypes
[2] = Ki h-GABAA α1β2γ1, membranes of HEK293F cells, [3H]RO7239181 20-30 nM, Table 1
[3] = Ki h-GABAA α1β2γ1, Table 3, reference compounds and examples

Structure (SMILES) | Efficacy (GABA) % (h-GABA-A α2β2γ1) [%] | Fold increase h-GABA-A α2β2γ1 oocyte @ 30-fold Ki (h-GABA-A α2β2γ1) | Ki [1, 2] [nM] | Ki [1, 3] [nM] | Ki ([1]; membranes of HEK293F cells, [3H]RO7239181 20-30 nM, Table 1, read-out: Ki h-GABAA α1β2γ1) [nM]
Cc1nnc2n1-c1sc3c(c1C(c1c(F)cccc1F)=N[C@H]2C)CCCC[C@@H]3F (single isomer, unassigned) [Example 12] | 185 | 2.85 | 45.7 |  | 
Cc1nnc2n1-c1sc3c(c1C(c1c(F)cccc1F)=N[C@H]2C)CC[C@H](F)CC3 (single isomer, unassigned) [Example 14] | 181 | 2.81 | 118 |  | 
Cc1nnc2n1-c1sc3c(c1C(c1c(F)cccc1F)=N[C@H]2C)CC[C@@H](F)CC3 (single isomer, unassigned) [Example 15] | 144 | 2.44 | 131 |  | 
Cc1nnc2n1-c1sc3c(c1C(c1c(F)cccc1F)=N[C@H]2C)CCC[C@H](F)C3 (single isomer, unassigned) [Example 17] | 135 | 2.35 | 30.2 |  | 
Cc1nnc2n1-c1sc3c(c1C(c1c(F)cccc1F)=N[C@H]2C)CCC(F)C(F)C3 (single isomer, unassigned) [Example 34] | 134 | 2.34 | 103 |  | 
Cc1nnc2n1-c1sc3c(c1C(c1c(F)cccc1F)=NC2)CCCCC3 [Example 1, 9-(2,6-difluorophenyl)-3-methyl-18-thia-2,4,5,8-tetrazatetracyclo[8.8.0.02,6.011,17]octadeca-1(10),3,5,8,11(17)-pentaene] | 64 | 1.64 | 20 | 19.7 | 
Cc1nnc2n1-c1sc3c(c1C(c1c(F)cccc1F)=N[C@H]2C)CCCCC3 [Example 2, (7S)-9-(2,6-difluorophenyl)-3,7-dimethyl-18-thia-2,4,5,8-tetrazatetracyclo[8.8.0.02,6.011,17]octadeca-1(10),3,5,8,11(17)-pentaene] | 66 | 1.66 | 19.2 |  | 
Cc1nnc2n1-c1sc3c(c1C(c1c(F)cccc1F)=N[C@H]2C)CCCC(F)(F)C3 [Example 8, (7S)-9-(2,6-difluorophenyl)-15,15-difluoro-3,7-dimethyl-18-thia-2,4,5,8-tetrazatetracyclo[8.8.0.02,6.011,17]octadeca-1(10),3,5,8,11(17)-pentaene] | 203 | 3.03 | 312 |  | 
Cc1nnc2n1-c1sc3c(c1C(c1c(F)cccc1F)=NC2)CCCCO3 [Example 18, 9-(2,6-difluorophenyl)-3-methyl-16-oxa-18-thia-2,4,5,8-tetrazatetracyclo[8.8.0.02,6.011,17]octadeca-1(10),3,5,8,11(17)-pentaene] | 113 | 2.13 | 55.1 |  | 
Cc1nnc2n1-c1sc3c(c1C(c1c(F)cccc1F)=N[C@H]2C)CCCCO3 [Example 19, (7S)-9-(2,6-difluorophenyl)-3,7-dimethyl-16-oxa-18-thia-2,4,5,8-tetrazatetracyclo[8.8.0.02,6.011,17]octadeca-1(10),3,5,8,11(17)-pentaene] | 122 | 2.22 | 80.5 |  | 
Cc1nnc2n1-c1sc3c(c1C(c1c(F)cccc1F)=N[C@H]2C)COCCO3 [Example 21, (7S)-9-(2,6-difluorophenyl)-3,7-dimethyl-13,16-dioxa-18-thia-2,4,5,8-tetrazatetracyclo[8.8.0.02,6.011,17]octadeca-1(10),3,5,8,11(17)-pentaene] | 140 | 2.40 | 52.6 | 52.6 | 
C[C@@H]1N=C(c2c(F)cccc2F)c2c(sc3c2COCCO3)-n2nc(C(=O)N3CC(F)C3)nc21 [Example 24, (3-fluoroazetidin-1-yl)-[(7S)-9-(2,6-difluorophenyl)-7-methyl-13,16-dioxa-18-thia-2,3,5,8-tetrazatetracyclo[8.8.0.02,6.011,17]octadeca-1(10),3,5,8,11(17)-pentaen-4-yl]methanone] | 59 | 1.59 | 24.7 |  | 
Cc1nnc2n1-c1sc3c(c1C(c1c(F)cccc1F)=N[C@H]2C)COC[C@H](C)O3 [Example 30, (7S,15S)-9-(2,6-difluorophenyl)-3,7,15-trimethyl-13,16-dioxa-18-thia-2,4,5,8-tetrazatetracyclo[8.8.0.02,6.011,17]octadeca-1(10),3,5,8,11(17)-pentaene] | 150 | 2.50 | 205 |  | 
CCOC1CN(C(=O)c2nc3n(n2)-c2sc4c(c2C(c2c(F)cccc2F)=N[C@H]3C)COCCO4)C1 [Example 31, [(7S)-9-(2,6-Difluorophenyl)-7-methyl-13,16-dioxa-18-thia-2,3,5,8-tetrazatetracyclo[8.8.0.02,6.011,17]octadeca-1(10),3,5,8,11(17)-pentaen-4-yl]-(3-ethoxyazetidin-1-yl)methanone] | 69 | 1.69 | 43.6 |  | 
Cc1nnc2n1-c1sc3c(c1C(c1c(F)cccc1F)=N[C@H]2C)OCCCC3 [Example 33, (7S)-9-(2,6-difluorophenyl)-3,7-dimethyl-12-oxa-18-thia-2,4,5,8-tetrazatetracyclo[8.8.0.02,6.011,17]octadeca-1(10),3,5,8,11(17)-pentaene] | 76 | 1.76 | 380 |  | 
Cc1nnc2n1-c1sc3c(c1C(c1c(F)cccc1Cl)=N[C@H]2C)COCCO3 [Example 35, (7S)-9-(2-chloro-6-fluoro-phenyl)-3,7-dimethyl-13,16-dioxa-18-thia-2,4,5,8-tetrazatetracyclo[8.8.0.02,6.011,17]octadeca-1(10),3,5,8,11(17)-pentaene] | 61 | 1.61 | 47.2 |  | 
C[C@@H]1N=C(c2c(F)cccc2F)c2c(sc3c2COC[C@H](C)O3)-n2nc(C(=O)N3CC(F)C3)nc21 [Example 40, [(7S,15S)-9-(2,6-difluorophenyl)-7,15-dimethyl-13,16-dioxa-18-thia-2,3,5,8-tetrazatetracyclo[8.8.0.02,6.011,17]octadeca-1(10),3,5,8,11(17)-pentaen-4-yl]-(3-fluoroazetidin-1-yl)methanone] | 141 | 2.41 |  |  | 286
